Results: publication PMC3426542, “A Novel Virulence Strategy for Pseudomonas aeruginosa Mediated by an Autotransporter with Arginine-Specific Aminopeptidase Activity” (PLoS Pathogens, 2012)

Molecular target: T1, SGAP (Streptomyces griseus, UniProt P80561)
T1 construct: gene SGR_5809; commercial preparation (Sigma)
Assay: 4-nitroanilide release at […] nm, commercial enzyme
Assay type: biochemical
Settings: 1 mM substrate, MMP, 37 °C

T1 sequence (P80561 46-329): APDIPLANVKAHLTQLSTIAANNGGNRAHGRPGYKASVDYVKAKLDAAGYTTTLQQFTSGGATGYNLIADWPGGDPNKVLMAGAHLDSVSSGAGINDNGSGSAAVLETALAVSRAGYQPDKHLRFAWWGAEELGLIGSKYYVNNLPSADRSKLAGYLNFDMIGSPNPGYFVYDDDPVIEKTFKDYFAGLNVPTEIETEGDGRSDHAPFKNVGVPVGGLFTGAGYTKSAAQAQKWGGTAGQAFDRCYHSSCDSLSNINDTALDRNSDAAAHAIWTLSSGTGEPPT

**Q.** For `CC(C)C[C@H](N)C(=O)Nc1ccc([N+](=O)[O-])cc1` [leucine-p-nitroanilide], which “4-nitroanilide release at 405 nm, commercial enzyme” value is on record?
**A.** SGAP clearly released maximal levels of 4-nitroanilide from leucine-p-nitroanilide and methionine-p-nitroanilide

**Q.** For `CSCC[C@H](N)C(=O)Nc1ccc([N+](=O)[O-])cc1` [methionine-p-nitroanilide], which “4-nitroanilide release at 405 nm, commercial enzyme” value is on record?
**A.** SGAP clearly released maximal levels of 4-nitroanilide from leucine-p-nitroanilide and methionine-p-nitroanilide
